The test system of series [1] is GPC glucuronidation in human liver microsomes. The experiment in a line: Chemical inhibition of GPC glucuronidation in human liver microsomes. The settings on record: GPC 15 μM, HLMs 0.2 mg/mL, 30 min. As to the method: (§1) The glucuronidation incubation system consisted of Tris-HCl buffer (50 mM, pH = 7.4), magnesium chloride (4 mM), alamethicin (12.5 μg/mL), human liver microsomes (0.5 mg/mL), UDPGA (100 mM), and GPC (20 μM). […] The incubation system was first preincubated at 37 °C for 3 min before adding UDPGA to initiate the reaction. The reaction was terminated […] with the addition of an equal volume of iced acetonitrile (containing 30 μM PPT). After vortexing for 3 min, the supernatant obtained was centrifuged at 14,300 rpm for 15 min at 4 °C and used for LC–MS/MS analysis.
(§2) Glucuronidation metabolism of GPC in HLMs was inhibited using hecogenin, phenylbutazone, fluconazole, and magnolol. The concentrations of the four inhibitors were set to 1, 10, 50, and 200 μM, and the concentration of GPC was set to 15 μM. The incubation time and protein concentration were […], respectively. All the rest of the incubation conditions were as in Section 4.3. The incubation without inhibitor but with the same volume of DMSO was set to be the solvent control.
For orientation: Microsomes from liver hold many membrane-bound enzymes, among them those of drug oxidation.

Series [2] has as its system GPC glucuronidation. The description is as above. Conditions: human, pH 7.4. As to the method: as §1, §2
The nature of series [3]: GPC glucuronidation in dog liver microsomes (enzyme kinetics, species comparison). The settings on record: Beagle, dog, dog liver microsomes, pH 7.4.
Series [4] relates to dog liver microsomes (DLM). The description is as above. The settings on record: 30 min.
Series [5] relates to glucuronidation (GPCG formation). Described as above. The settings on record: Beagle, dog, dog liver microsomes, pH 7.4.
The target of series [6] is T1, recombinant human UGT1A4 (Homo sapiens, UniProt P22310).
T1 construct: purchased Cypex (Scotland, UK)
T1 sequence (P22310 29-534): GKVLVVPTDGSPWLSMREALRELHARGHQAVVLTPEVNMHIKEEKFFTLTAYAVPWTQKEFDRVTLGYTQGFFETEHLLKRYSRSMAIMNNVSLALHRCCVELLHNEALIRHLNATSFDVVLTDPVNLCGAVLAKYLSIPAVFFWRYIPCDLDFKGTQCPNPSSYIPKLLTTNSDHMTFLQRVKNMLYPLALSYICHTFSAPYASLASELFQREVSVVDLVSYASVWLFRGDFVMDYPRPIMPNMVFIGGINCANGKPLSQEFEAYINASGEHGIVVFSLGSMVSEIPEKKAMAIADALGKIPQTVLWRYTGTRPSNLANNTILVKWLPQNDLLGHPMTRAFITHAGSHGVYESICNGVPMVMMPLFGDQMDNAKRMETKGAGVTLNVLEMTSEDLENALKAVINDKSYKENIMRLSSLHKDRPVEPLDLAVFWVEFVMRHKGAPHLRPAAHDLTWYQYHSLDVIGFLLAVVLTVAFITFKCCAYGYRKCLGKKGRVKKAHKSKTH
Description: Recombinant human UGT enzyme assay of GPC glucuronidation, UGT1A4. The class given is in vitro ADME. The settings on record: recombinant UGT1A4 0.1 mg/mL, GPC 1 and 10 μM. Here is the method:
(§3) The glucuronidation incubation system consisted of Tris-HCl buffer (50 mM, pH = 7.4), magnesium chloride (4 mM), alamethicin (12.5 μg/mL), human liver microsomes (0.5 mg/mL), UDPGA (100 mM), and GPC (20 μM).
(§4) The glucuronidation metabolic activity of GPC at two concentration levels (1 and 10 μM) was determined using an incubation system with 10 recombinant human UGT enzymes (UGT1A1, 1A3, 1A4, 1A6, 1A7, 1A8, 1A9, 1A10, 2B7, 2B17) (0.1 mg/mL). The incubation conditions were the same as in Section 4.3, except for the protein concentration of 0.1 mg/mL. Lastly, metabolites were detected using LC–MS/MS.

For series [7], the system named is recombinant human UGT1A1, 1A3, 1A6, 1A7, 1A8, 1A9, 1A10, 2B7, and 2B17. The experiment in a line: Recombinant human UGT enzyme assay of GPC glucuronidation, remaining isoenzymes. It is filed as in vitro ADME. Conditions: remaining recombinant UGT isoenzymes 0.1 mg/mL, GPC 1 and 10 μM. As to the method: as §3, §4
The nature of series [8]: GPC glucuronidation in human liver microsomes (enzyme kinetics, species comparison). The settings on record: human, human liver microsomes, pH 7.4.
The test system of series [9] is human liver microsomes (HLMs). The series is described as above. The settings on record: 30 min.
Series [10] deals with glucuronidation (GPCG formation). The description is as above. Conditions: human, human liver microsomes, pH 7.4.
The nature of series [11]: GPC glucuronidation in rat liver microsomes (enzyme kinetics, species comparison). Conditions: Sprague-Dawley, rat, rat liver microsomes, pH 7.4.
Series [12] has as its system glucuronidation (GPCG formation). The series is described as above. The settings on record: Sprague-Dawley, rat, rat liver microsomes, pH 7.4.
Series [13] concerns rat liver microsomes (RLM). Described as above. Conditions: 30 min.
A short description of series [14]: GPC glucuronidation in mouse liver microsomes (enzyme kinetics, species comparison). Conditions: ICR/CD-1, mouse, mouse liver microsomes, pH 7.4.
In series [15] the test system is glucuronidation (GPCG formation). The series is described as above. Conditions: ICR/CD-1, mouse, mouse liver microsomes, pH 7.4.
The subject of series [16] is mouse liver microsomes (MLM). The series is described as above. The settings on record: MLMs 0.2 mg/mL, GPC 2–200 μM, 30 min, substrate inhibition fit.
For series [17], the system named is monkey liver microsomes (MkLM). Description: GPC glucuronidation in monkey liver microsomes (enzyme kinetics, species comparison). Conditions: 30 min.
Experiment in series [18]: as above
Conditions: monkey, monkey liver microsomes, pH 7.4.

Series [19] concerns glucuronidation (GPCG formation). The series is described as above. Conditions: monkey, monkey liver microsomes, pH 7.4.
The nature of series [20]: GPC glucuronidation in bovine liver microsomes (enzyme kinetics, species comparison). The settings on record: bovine, bovine liver microsomes, pH 7.4.
Series [21] deals with glucuronidation (GPCG formation). The description is as above. The settings on record: bovine, bovine liver microsomes, pH 7.4.
Series [22] has as its system bovine liver microsomes (BLM). The description is as above. The settings on record: 30 min.
A short description of series [23]: GPC glucuronidation in pig liver microsomes (enzyme kinetics, species comparison). Conditions: minipig, pig, pig liver microsomes, pH 7.4.
Series [24] deals with pig liver microsomes (PLM). Described as above. Conditions: 30 min.
The subject of series [25] is glucuronidation (GPCG formation). Described as above. Conditions: pig, pig liver microsomes, pH 7.4.
The subject of series [26] is rabbit liver microsomes (RaLM). Description: GPC glucuronidation in rabbit liver microsomes (enzyme kinetics, species comparison). The settings on record: RaLMs 0.2 mg/mL, GPC 2–200 μM, 30 min, substrate inhibition fit.
Experiment in series [27]: as above
Conditions: New Zealand, rabbit, rabbit liver microsomes, pH 7.4.

In series [28] the test system is glucuronidation (GPCG formation). The series is described as above. The settings on record: New Zealand, rabbit, rabbit liver microsomes, pH 7.4.
Where [29] appears, read: inhibitor 1, 10, 50, and 200 μM.

For hecogenin, the “inhibition of GPC glucuronidation” value in series [1] (inhibitor 1 μM) is “more than 40%”; in series [1] (inhibitor 10 μM), 70%.

With `OC(Cn1cncn1)(Cn1cncn1)c1ccc(F)cc1F` [fluconazole], the “inhibition of GPC glucuronidation (in words)” value (shortened to “inhibition … (in words)”) in series [1] (setting [29]) is “Neither fluconazole nor phenylbutazone inhibited”.

With `CCCCC1C(=O)N(c2ccccc2)N(c2ccccc2)C1=O` [phenylbutazone], in [1] (setting [29]), the “inhibition … (in words)” value is listed as “Neither fluconazole nor phenylbutazone inhibited”.

With `C=CCc1ccc(O)c(-c2cc(CC=C)ccc2O)c1` [Magnolol, magnolol], in series [1] (inhibitor 1–50 μM), the “inhibition … (in words)” value is listed as “insignificant inhibition”. The same compound showed an inhibition at 30 min, 200 μM in series [2] of 50%.

Turning to `CC(C)=C1CC=C([C@H]2CC[C@]3(C)[C@@H]2CC[C@@H]2[C@@]4(C)CC[C@H](O)C(C)(C)[C@@H]4CC[C@]23C)C1=O` [GPC, Gypensapogenin C], the microsomal CLint in series [3] came out at 2120 µL/min/mg; in series [8], 27 µL/min/mg; in [11], 40 µL/min/mg; in series [14], 690 µL/min/mg; in [18], 77 µL/min/mg; in series [20], 259 µL/min/mg. Besides, the results for the microsomal CLint in series [23] and in series [27] were 147 µL/min/mg and 304 µL/min/mg, respectively. Besides, the Vmax came out at 20.28 ± 2.57 nmol/min/mg in series [4] (DLMs 0.2 mg/mL, GPC 2–200 μM, substrate inhibition fit); 0.42 ± 0.09 nmol/min/mg in series [9] (HLMs 0.2 mg/mL, GPC 2–200 μM, substrate inhibition fit); 3.80 ± 3.01 nmol/min/mg in series [13] (RLMs 0.2 mg/mL, GPC 2–200 μM, substrate inhibition fit); 6.93 ± 0.69 nmol/min/mg in series [16]; 8.29 ± 4.69 nmol/min/mg in series [17] (MkLMs 0.2 mg/mL, GPC 2–200 μM, substrate inhibition fit); 3.17 ± 0.89 nmol/min/mg in [22] (BLMs 0.2 mg/mL, GPC 2–200 μM, substrate inhibition fit). Moreover, the Vmax is listed as 1.41 ± 0.18 nmol/min/mg in series [24] (PLMs 0.2 mg/mL, GPC 2–200 μM, substrate inhibition fit) and 4.92 ± 0.57 nmol/min/mg in [26]. In addition, the “GPC glucuronidation product generation (semiquantitative, peak area ratio)” value in [4] (dog liver microsomes 0.2 mg/mL, GPC 10 and 50 μM) was “highest amounts”; in series [9] (human liver microsomes 0.2 mg/mL, GPC 10 and 50 μM) it was “Trace amounts”; in series [13] (rat liver microsomes 0.2 mg/mL, GPC 10 and 50 μM), “Trace amounts”; in [17] (monkey liver microsomes 0.2 mg/mL, GPC 10 and 50 μM), “Trace amounts”; in series [22] (bovine liver microsomes 0.2 mg/mL, GPC 10 and 50 μM), “Trace amounts”; in [24] (pig liver microsomes 0.2 mg/mL, GPC 10 and 50 μM), “Trace amounts”. In addition, the Km at 30 min stood at 9.56 ± 2.83 µM in series [5]; 15.4 ± 5.26 µM in [10]; 94.1 ± 89.8 µM in [12]; 10 ± 2.1 µM in series [15]; 107 ± 73.2 µM in series [19]; 12.2 ± 5.16 µM in series [21]. The figures for the Michaelis-Menten constant (Km) at 30 min in [25] and in series [28] were 9.58 ± 2.32 µM and 16.2 ± 3.77 µM, respectively. The results for the “catalytic activity for GPC glucuronidation” value in series [6] and in series [7] were “highest catalytic activity” and “none of the remaining UGT isoenzymes showed activity”, respectively.

In general, inhibition refers to the relative decrease from the control value, in per cent. In general, microsomal CLint refers to a measure of how fast metabolising enzymes remove a compound, apart from limits set by blood flow. The Vmax is the top rate of the reaction or transport when substrate is in excess. As a reminder, the Km is the concentration of substrate that gives half-maximal velocity.

Values taken from publication PMC9865363, “Identification of Human UDP-Glucuronosyltransferase Involved in Gypensapogenin C Glucuronidation and Species Differences” (International Journal of Molecular Sciences, 2023).
